{"source": "paper PMC12291913", "about": "(Antibiotics, 2025)", "system": "M. avium clinical isolate Koav 3 (GyrA Asp95Gly)", "type": "cell-based, M. avium subsp. hominissuis"}
{"molecule": "Cc1c(N2CC(N(C)C)C2)c(F)cc2c(=O)c(C(=O)O)cn(-c3nc(N)c(F)cc3F)c12", "note": "[WQ-3810]", "values": [{"measurement": "MIC", "value": 4, "unit": "µg/mL"}, {"measurement": "MIC with 1 µg/mL EMB", "value": "4 (×1) µg/mL"}, {"measurement": "MIC with 1 µg/mL INH", "value": "2 (×0.5) µg/mL"}]}
